“And” between values parts separate entries of the source, which are not always exact repeats. Equal values may be shown once. Read-outs that look alike come from different tables or passages of the source.
How the values were obtained:
[1] = test system: endoscopic sedation patients; conditions: anesthetist-administered propofol sedation; cited from earlier work
DISE patients = conditions: cited from earlier work; for average time for the procedures: DeVito et al.
patients with severe OSA = test system: patients with severe OSA
Experimental: Ninety-seven (97) patients were enrolled in a prospective study of transoral robotic resection of the tongue base; the examples described below provided a secondary outcome measure of that study. […] The apnea-hypopnea index (AHI) for each patient was recorded from the sleep study. For each patient the saturation nadirs from the sleep study and DISE were paired for statistical analysis. […] The system utilizes the Cortinez pharmacokinetic model (Cortinez et al., Br J Anaesth. 2010; 105:448-56.) and the Johnson pharmacodynamic model (Johnson et al., Anesth Analg. 2008; 106:471-9.) to determine an infusion sequence comprised of a bolus, initial infusion, secondary infusion, and a time for transition from the initial to secondary infusion using the age and weight of the individual patient. This sequence minimizes the difference between the predicted probability of loss of responsiveness and a linear ramp. This is termed probability ramp control (PRC). A brief description of the mathematical approach can be found below. The MATLAB® program (an embodiment of the system) performed the calculations, indicated the time to perform the transition to the second infusion, and logged the time at which obstruction was noted.
All DISE studies were performed in an operating room with standard monitors and resuscitation equipment. A single otorhinolaryngologist performed each nasopharyngoscopy. […] All DISE patients received 2 liters per minute supplemental oxygen via a nasal cannula placed in the mouth. Supplemental oxygen was not used during polysomnography studies (as is typical for this procedure). Pulse oximetry data was recorded for subsequent analysis from a Nellcor pulse oximeter (Covidien, Mansfield, Mass.) at 30-second intervals by the DocuSys anesthesia record keeping system. […] A Baxter AS50 pump (Baxter, Deerfield, Ill.) was programmed with the initial bolus and infusion rates as determined by the control system. […] With the bronchoscope in position to observe the velopharynx, the sedation sequence proceeded until the onset of obstruction was noted. This was identified as the obstruction clinical endpoint. Observation of the pharynx was performed for a sufficient period to obtain images of the anatomic site(s) of obstruction. The infusion was then terminated and the patient allowed to recover. Patient characteristics and derived pharmacokinetic measures were assessed for normal distribution using the Lilliefors test at 5% significance level using the Statistics Toolbox of MATLAB® 8.0 (MathWorks, Natick, Mass.). […] Comparison of saturation nadirs from DISE and polysomnography was performed with both the paired and unpaired Student's t-test. […] No power analysis was performed for this study, as it was a secondary outcome measure for the larger study of transoral robotic surgery.

[2] = Nominal Cortinez model; cited from earlier work
[3] = test system: patients scheduled for elective esophagogastroduodenoscopy (EGD); conditions: for Maximum Effect Site: Cortinez model estimate; for Maximum Effect Site / Target Effect Site / Time to target: median (IQR); for Target Effect Site: at loss of responsiveness to nasopharyngeal airway placement; for patients with oxygen saturation values below 90%: 100% oxygen via Robertazzi airway
Experimental: In addition to ASA standard monitors, respiratory inductance plethysmography (RIP) (Ambulatory Monitoring Inc, Armonk, N.Y.), SEDLine® patient state index (PSI) (Masimo Corp, Irvine, Calif.) and RAD87 pulse oximeter (Masimo Corp, Irvine, Calif.) were applied. All patients received 50 μg of fentanyl immediately prior to initiation of sedation. […] In the experimental arm, patient age and weight were used by the PRC algorithm to calculate bolus, infusion1, infusion2, and time for transition from infusion1 to infusion2. These numbers were reviewed by an investigator prior to initiation of sedation, and when the patient could tolerate airway placement, the software determined the maintenance infusion to maintain the effect-site concentration at the value existing at that time. Custom software written in Labview 2012 (National Instruments, Austin, Tex.) performed these calculations, transmitted the infusion rates to a Graseby 3400 pump (Marcal Medical, Millersville, Md.), and acquired data from the monitors.
All patients were preoxygenated using a Mapleson circuit at oxygen flows greater than 10 liters per minute. Following placement of the Robertazzi airway, the Mapleson circuit was connected to the airway via the connector from an endotracheal tube and the adjustable pressure limit valve closed, assuring continuous flow of 100% oxygen into the hypopharynx.
In experimental patients, the CRNA could request additional boluses or changes in infusion rates as they saw fit. […] This measure is reported in two ways. The first is termed “adjustment dose”, which is the cumulative absolute value of the difference between the intended trajectory and the actual administration. The second is the “intended ratio”, which is the ratio of the dose delivered on the intended trajectory and the actual administration. These measures are depicted in FIG. 7. In FIG. 7, the dotted line indicates the actual infusion rates, while the solid line indicates the intended trajectory (fixing the infusion rate at 300 μg/kg/min).
Ventilatory depression was assessed from respiratory inductance plethysmography signals. The signals were filtered by ensemble empirical mode decomposition employing 450 realizations and noise scaled to 40% of signal power. The dominant mode was used for the Huang-Hilbert Transform (HHT). Minute ventilation was computed as the product of the respiratory rate times the magnitude of volume change at one second intervals. Baseline ventilation was determined from several breaths prior to initiation of sedation; subsequent measurements were normalized by this baseline value. These values were grouped into one minute epochs and the median of values less than 100% obtained. Values above 100% were excluded for two reasons.
Oxygen saturation was acquired from the RAD87 at one second intervals, as was the patient state index. Obvious artifacts such as sensor dislodgement were excluded from analysis. Desaturation is reported as cumulative time below specified saturation in the range from 54% to 90%.
Effect site estimates were calculated using the Cortinez model employing the nominal values, with an adjoined effect compartment. The ke0 was chosen to yield a time to peak effect of 1.6 minutes. MATLAB® code for the state-space implementation of this model with observation of the effect site is available on the OpenTCI website.

CC(C)c1cccc(C(C)C)c1O [propofol]
BIS values, mean and standard deviation [1]: 72.1±15.1
average time for the procedures (DISE patients; TCI group): 15.2 min
patients demonstrating sedation instability (DISE patients; TCI group): 5%
average time for the procedures (DISE patients; manual control group): 6.2 min
patients demonstrating sedation instability (DISE patients; manual propofol bolus group): 65%
median saturation nadir during DISE (patients with severe OSA; 2 liters per minute supplemental oxygen, median ± IQR, polysomnography 81.0±11.25%): 91.4±5.1%
predicted effect-site concentration for obstruction (patients with severe OSA; Cortinez model, ke0 for time to peak effect of 1.6 minutes): 4.2 ± 1.3 µg/mL
median time to obstruction (patients with severe OSA; DISE, PRC infusion, n=97, median (IQR)): 3.8 (IQR 1.2) minutes
mean predicted effect-site concentration of propofol at obstruction (patients with severe OSA; DISE, PRC infusion, Cortinez model with adjoined effect compartment): 4.2 ± 1.3 µg/mL
adverse events (patients with severe OSA; DISE, all patients): no adverse events
mean time to obstruction (patients with severe OSA; control system according to Example 1): 3.9 min
lowest saturation measured (patients with severe OSA; oxygen at 2 liters per minute via oral cannula): 74%
median saturation nadir during DISE (patients with severe OSA; sub-cohort of 7 patients whose nadir was not lower during polysomnography): 85%
Q2 [2]: 3.2 L/min
V3 [2]: 53.8 L
Maximum Effect Site ([3]; Control (CRNA dosing)): 6.1 (3.5) μg/ml
Target Effect Site ([3]; Control (CRNA dosing)): 4.8 (1.6) μg/ml
Time to target ([3]; Control (CRNA dosing)): 2 (2.2) min
Maximum Effect Site ([3]; Experimental (PRC)): 5.3 (4.6) NS μg/ml
Target Effect Site ([3]; Experimental (PRC)): 4.9 (2.9) NS μg/ml
Time to target ([3]; Experimental (PRC)): 3.9 (1.6) min and 3.9 (1.6) * min
additional time to achieve endoscope placement ([3]; PRC system versus control): 111 s
patients identified at targets below 3.9 μg/ml ([3]; control group (CRNA dosing)): No control patients
patients with oxygen saturation values below 90% ([3]; control patients): 3
patients identified at targets below 3.9 μg/ml ([3]; experimental group (PRC)): 5/20
patients with targets below effect-site concentrations of 3.9 μg/ml ([3]; experimental group (PRC)): 20%
patients with oxygen saturation values below 90% ([3]; experimental patients): 2
